Test results taken from patent US20100129856A1, “Methods and Devices for Cell Signaling Under Pulse Stimulation” (priority 2008, published 2010).
No end group written: not given here.

Key:
quiescent A431 cells = test: Microfluidics-RWG biosensor DMR assay under pulse or sustained stimulation; format: cell-based, human; details: FIG. 8; for DMR signal under pulse stimulation compared with sustained epinephrine response: 2 min pulse, 2 nM epinephrine, 100 nM salbutamol, flow 1 microliter/min
Method: (§1) Cells were typically grown using ˜1 to 2×10^4 cells per well at passage 3 to 15 suspended in 50 μl of the corresponding culture medium in the biosensor microplate, and were cultured at 37° C. under air/5% CO2 for ˜1 day. Except for A431 which was subject to ˜20 hr starvation through continuously culture in the serum-free DMEM, the A459 cells were directly assayed without starvation. The confluency for all cells at the time of assays was ˜95% to 100%. For cell culture in the microfluidics-biosensor chamber systems, ˜4×10^4 cells suspended in 10 μl the medium containing 10% FBS were injected into the chamber, and were cultured at 37° C. under air/5% CO2 until ˜95% confluency was reached (˜1 day). To prevent drying during the culture, the biosensor device was maintained within a petri dish with a cover, and extra cell medium within the dish.
(§2) Label-free biosensor cell assays: Corning RWG (resonant waveguide grating) imaging system was used for label-free biosensor cell assays. The imaging system, based on swept wavelength interrogation, is capable of high resolution imaging, with a spatial resolution of 6 micron in the direction perpendicular to the propagation path of the coupled light, a resolution of about 150 or about 6 microns in the direction parallel to the propagation path of the coupled light. The cellular responses across the whole sensor were recorded in real time at each pixel (6 microns×6 microns). The cellular responses at defined locations or areas of the biosensor surface were averaged to generate responses of a population of cells within the detection area(s).
The A431 cells reached high confluency before assays, and were subject to starvation for overnight with serum free medium. For A549 cells, cells were grown to high confluency and used for assays without starvation. Before assays, the cell medium was replaced with 1× Hanks' balanced salt solution (HBSS) having 20 mM Hepes buffer, and incubated within the imaging system for about 1 hour. […] The cellular responses throughout the assays were recorded using the high resolution imaging system. […]

PAR1 receptor = target: T1, PAR1 receptor (Homo sapiens, UniProt P25116); test: Microfluidics-RWG biosensor DMR assay of A549 cells with PAR1 agonists; format: cell-based; details: for EC100: DMR; for Reversibility of the triggered cellular response: agonist removed after 30 min; for Response of pre-treated cells to second stimulation with 10 unit/ml thrombin: first exposure 30 min (SFLLR-amide 10 μM or thrombin 5 unit/ml), HBSS ~2 hours, then thrombin, FIG. 10; for P-DMR signal maximal amplitude (shift in resonant wavelength): thrombin 5 unit/ml, SFLLR-amide 10 μM, constant flow 1 microliter per min, FIG. 9
T1 construct: triggered an almost indistinguishable DMR signal in A549 cells; host or cells: A549 (human lung carcinoma), not starved
T1 sequence (P25116 22-425): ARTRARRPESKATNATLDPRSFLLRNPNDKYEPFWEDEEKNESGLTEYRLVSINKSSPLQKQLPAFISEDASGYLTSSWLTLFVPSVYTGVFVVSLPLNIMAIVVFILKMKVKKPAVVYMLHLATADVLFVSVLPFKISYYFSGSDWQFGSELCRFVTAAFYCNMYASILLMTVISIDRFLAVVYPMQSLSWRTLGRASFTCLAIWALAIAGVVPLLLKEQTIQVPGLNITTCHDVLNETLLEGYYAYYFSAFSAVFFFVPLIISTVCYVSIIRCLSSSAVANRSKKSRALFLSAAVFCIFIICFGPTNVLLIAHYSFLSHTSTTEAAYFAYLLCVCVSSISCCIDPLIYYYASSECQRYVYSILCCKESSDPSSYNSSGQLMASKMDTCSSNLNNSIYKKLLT
Method: as §1, §2
The A431 cells reached high confluency before assays, and were subject to starvation for overnight with serum free medium. For A549 cells, cells were grown to high confluency and used for assays without starvation. Before assays, the cell medium was replaced with 1× Hanks' balanced salt solution (HBSS) having 20 mM Hepes buffer, and incubated within the imaging system for about 1 hour. The chamber was filled with 6.6 micro-liters buffered solution. The HBSS buffer solution was initially introduced into the chamber from the inlet and flowed through the biosensor with a low flow rate (typically 1 μl/min or 1 microliter/min) using a controlled pump until a steady baseline was reached. Then, a first solution, typically a solution containing a receptor agonist or a compound dissolved in the HBSS buffer, was introduced by switching the valve, and flowed through the biosensor for a period of time (e.g., 1 min, or 5 min, or 30 min). Subsequently, the HBSS buffer solution was reintroduced and flowed through the biosensor to replace the first solution. After certain time period, a second solution, typically a solution containing a receptor agonist or a compound, either different or the same as the first solution, was introduced and flowed through the biosensor continuously to trigger a cellular response. The flow rate was typically relatively low (˜0.5 μ/min to 5 μl/min), such that no mechanical sensitive cellular responses were triggered, and the cellular responses observed were largely due to the chemical(s) in the solution. Different combinations of these steps can be applied, depending on the purpose of the assays. The cellular responses throughout the assays were recorded using the high resolution imaging system. Depending on the biosensor insert used, the biosensor has a dimension of 3 mm×3 mm or 2 mm×2 mm. The chamber dimension is a length of about 9 mm from the inlet to the outlet, a width of 5 mm, and a height of 100 microns from the sensor surface to the bottom surface of the chamber. The total volume of solution required to fill the chamber is about 6 micro-liters.
For biosensor cellular assays, a baseline was established first. All studies were carried out at controlled temperature (22° C.) and with three replicates for each measurement, unless specifically mentioned. […]

[1] = target: T2, β2-adrenergic receptor (β2AR) (Homo sapiens, UniProt P07550); test: Buffer swapping RWG biosensor DMR assay (microplate) for long-acting agonism; format: cell-based
T2 construct: 2 nM epinephrine-induced DMR signal of quiescent A431 cells; host or cells: A431 (human epidermoid carcinoma), serum-starved (quiescent)
T2 sequence (P07550 whole entry): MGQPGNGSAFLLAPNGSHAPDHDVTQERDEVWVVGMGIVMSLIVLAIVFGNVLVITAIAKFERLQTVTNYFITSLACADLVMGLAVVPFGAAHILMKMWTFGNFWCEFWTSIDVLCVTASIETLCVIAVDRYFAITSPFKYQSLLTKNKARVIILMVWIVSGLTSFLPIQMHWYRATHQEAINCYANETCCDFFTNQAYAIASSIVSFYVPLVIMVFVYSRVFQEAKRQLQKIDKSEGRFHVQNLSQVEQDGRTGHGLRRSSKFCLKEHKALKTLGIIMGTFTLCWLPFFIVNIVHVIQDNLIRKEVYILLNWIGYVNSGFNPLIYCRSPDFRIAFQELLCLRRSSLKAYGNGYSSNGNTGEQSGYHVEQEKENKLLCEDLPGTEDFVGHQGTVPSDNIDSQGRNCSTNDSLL
Method: Cells were typically grown using ˜1 to 2×10^4 cells per well at passage 3 to 15 suspended in 50 μl of the corresponding culture medium in the biosensor microplate, and were cultured at 37° C. under air/5% CO2 for ˜1 day. […] The confluency for all cells at the time of assays was ˜95% to 100%.

[2] = quiescent A431 cells, pulse about 60 sec, 100 nM norepinephrine, 100 nM salbutamol, 100 nM salmeterol, FIG. 7b

Compound | DMR signal under pulse stimulation compared with sustained epinephrine response (quiescent A431 cells) | EC100 (PAR1 receptor; A549 cells) | Reversibility of the triggered cellular response (PAR1 receptor; A549 cells) | Response of pre-treated cells to second stimulation with 10 unit/ml thrombin (PAR1 receptor; A549 cells) | P-DMR signal maximal amplitude (shift in resonant wavelength) (PAR1 receptor; A549 cells) [picometers] | Effect of pulse pre-treatment on the 2 nM epinephrine-induced DMR signal [1, 2] | further results
CC(C)(C)NCC(O)c1ccc(O)c(CO)c1 (stereo not shown) [salbutamol] | much smaller response |  |  |  |  |  | 
SFLLR-amide (SFLLR-NH2; UniProt P25116 42-46, looked up, fragment) |  | 10 µM | largely reversible | still able to respond to the second stimulation with thrombin with slightly smaller amplitude | ~400 |  | Plateau level of DMR signal above the baseline after switching back to HBSS (PAR1 receptor; A549 cells, 10 μM agonist replaced with HBSS 30 min after stimulation, FIG. 9a): about 120 picometers
C[C@@H]1C[C@@H]([C@H](O)CC2CC(=O)NC(=O)C2)C(=O)[C@@H](C)C1 [cycloheximide] |  |  |  |  |  |  | Effect on the second thrombin response of thrombin-treated A549 cells (PAR1 receptor; 10 μM cycloheximide in every solution, data not shown): largely eliminated
thrombin |  | 5 unit/ml | largely irreversible | only gave rise to a little response | ~400 |  | DMR signal after switching back to HBSS (PAR1 receptor; A549 cells, 5 unit/ml agonist replaced with HBSS 30 min after stimulation, FIG. 9b): still maintained elevated signal
NC[C@H](O)c1ccc(O)c(O)c1 [norepinephrine] |  |  |  |  |  | little impact | 
CNC[C@H](O)c1ccc(O)c(O)c1 [epinephrine] | much smaller response |  |  |  |  | little impact | Response to second stimulation with 2 nM epinephrine after sustained pre-treatment ([1]; A431 cells pre-treated with 2 nM epinephrine under sustained stimulation, data not shown): completely desensitized; Long-acting or short-acting agonism at the β2AR ([1]; concluded from pulse stimulation through buffer swapping, quiescent A431 cells): short-acting agonist; Effect of pulse pre-treatment on the 2 nM epinephrine-induced DMR signal ([1]; quiescent A431 cells, pulse about 150 sec, 0.5 nM salmeterol, 1 nM CGP12177, 0.1 nM formeterol, FIG. 7a): did not cause the de-sensitization; DMR signal under sustained stimulation at slow flow rate (quiescent A431 cells; 2 nM epinephrine flowed throughout the assay, 1 microliter/min): comparable to that obtained using microplate-based sustained response
